From patent publication US20040248765A1, “Tumour targeting prodrugs activated by metallo matrixproteinases” (priority 2001, published 2004)
Read-outs that look alike come from different tables or passages of the source. Where a SMILES comes first, the peptide text is derived from it. [ ]: non-standard residue; d: D form. The star is where a group is joined. NH(CH2)3NH(1-anthraquinonyl) = O=C1c2ccccc2C(=O)c2c(NCCCN*)cccc21

Legend:
[1] = biological target: T1, topo I (Homo sapiens, UniProt P11387); experiment: Inhibition of topo I-mediated relaxation of pBR322 DNA; type: biochemical; conditions: for LEVEL OF INHIBITION of topo I-mediated relaxation pBR322 DNA: tested between 1-100 μM
T1 sequence (P11387 1-765): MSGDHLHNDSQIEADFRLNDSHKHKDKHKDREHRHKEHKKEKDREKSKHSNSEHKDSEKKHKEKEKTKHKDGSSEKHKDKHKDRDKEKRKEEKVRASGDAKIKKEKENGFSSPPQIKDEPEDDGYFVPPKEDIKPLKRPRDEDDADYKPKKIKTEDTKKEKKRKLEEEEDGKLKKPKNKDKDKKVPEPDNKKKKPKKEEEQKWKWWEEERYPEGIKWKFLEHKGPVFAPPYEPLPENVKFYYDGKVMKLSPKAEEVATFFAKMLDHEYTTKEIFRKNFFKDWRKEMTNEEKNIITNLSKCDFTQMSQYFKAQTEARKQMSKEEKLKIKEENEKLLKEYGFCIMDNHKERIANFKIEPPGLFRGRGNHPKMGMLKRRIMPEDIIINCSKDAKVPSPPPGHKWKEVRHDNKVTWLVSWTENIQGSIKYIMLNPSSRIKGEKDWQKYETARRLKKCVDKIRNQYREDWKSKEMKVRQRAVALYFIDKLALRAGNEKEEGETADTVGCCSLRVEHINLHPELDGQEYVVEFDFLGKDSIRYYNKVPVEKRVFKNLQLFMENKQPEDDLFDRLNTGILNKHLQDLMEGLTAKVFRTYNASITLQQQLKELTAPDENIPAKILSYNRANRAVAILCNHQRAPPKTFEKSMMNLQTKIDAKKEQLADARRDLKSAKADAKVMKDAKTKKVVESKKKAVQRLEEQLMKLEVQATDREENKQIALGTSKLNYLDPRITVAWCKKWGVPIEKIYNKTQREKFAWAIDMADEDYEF
Protocol: Neither example (8) [NU:UB187] (heptapeptide) nor its hexa-, penta-, or tetra-peptide metabolites {examples (7) [NU:UB 205], (6) [NU:UB 204] and (5) [NU:UB 186] respectively} inhibited the topo I- mediated relaxation of pBR322 DNA at concentrations up to 100 μM. […] (the preferred MMP-2 cleavage product of example (8) [NU:UB187] The topo I activities of example (2) [NU:UB 31] and example (1b) [NU:UB 197] bad previously been determined [Table 1].

[2] = test system: MAC15A; experiment: In vitro cytotoxicity, MAC15A, 1 hour exposure; type: cell-based; conditions: for % cells remaining: 1 × 10^4 cells/ml
[3] = In vitro tumour incubations: metabolism by dilute HT1080 tumour homogenate (HPLC); type: in vitro ADME; conditions: dilute HT1080 tumour homogenate (1:500)
Protocol: Separation was achieved using gradient reversed phase HPLC On a Lichrospher (25×4 mm) column.
Mobile phase A consisted of 10% acetonitrile: 90% TFA (0.05%) and mobile phase B of 60% acetonitrile: 40% TFA (0.05%). Optimum detection was at the λmax of 248 nm using a flow rate of 1.2 ml/min. The gradient profile was from 60% A to 5% A over 25 min.
Sample preparation for HPLC was by simple protein precipitation. 3 vols. of methanol were added to 1 vol. of sample (typically 100 μl) which was centrifuged at 3000 g for 5 min. The supernatant was injected directly onto the HPLC column.
In Vitro Tumour Incubations
Solid tumour (HTT1080—excised from NCI-Nu mice under a Home Office Licence) was homogenised (1:4) in MMP buffer. Tumour homogenates were incubated at 25° C. and compounds (drugs) were added to the homogenate to give a final concentration of 10 μM or 100 μM. Samples were taken at timed intervals and prepared for HPLC analysis as described above.
Where metabolism was so rapid tumour homogenates required dilution (to 1:500) before analysis.

[4] = Stability in murine whole blood and mouse plasma; type: in vitro ADME
[5] = test system: MAC15A adenocarcinoma of the colon; experiment: In vitro cytotoxicity against MAC15A adenocarcinoma of the colon, 96 hours exposure; type: cell-based
[6] = test system: calf thymus DNA; experiment: Fluorescence quenching, Ethidium Bromide displacement from calf thymus DNA; type: binding; conditions: for QE50 (Ethidium Bromide displacement): calf thymus DNA
[7] = test system: calf thymus DNA; experiment: Fluorescence quenching, Hoechst Dye 33258 displacement from calf thymus DNA; type: binding; conditions: for QH50 (Hoechst Dye 33258 displacement): calf thymus DNA
[8] = biological target: T2, human recombinant MMP-9 (Homo sapiens, UniProt P14780); experiment: In vitro enzyme incubation with recombinant MMP-9 (HPLC, MS/MS); type: biochemical; conditions: HPLC and MS/MS
T2 construct: purchased Calbiochem (Calbiochem-Novabiochem Ltd, Nottingham, UK)
Protocol: In vitro Enzyme Incubations
Compounds were incubated in vitro with purified recombinant enzyme (either MMP-9 or MMP-2) (Calbiochem, Nottingham, UK). Typically, compounds (drugs) were incubated at 5 μM concentrations using 10 μl of enzyme, 10μl of drug and 90 μl of buffer at 25° C. The buffer used consisted of 200 mM NaCl, 50 mM Tris, 5 mM CaCl2, 20 μM ZnSO4 and 0.05% Brij35 at pH 7.6.
At various time points 20 μl samples were taken and 60 μl of methanol added to precipitate proteins as described above and the metabolism of the compounds was analysed by HPLC (as above).

T2 sequence (P14780 94-707): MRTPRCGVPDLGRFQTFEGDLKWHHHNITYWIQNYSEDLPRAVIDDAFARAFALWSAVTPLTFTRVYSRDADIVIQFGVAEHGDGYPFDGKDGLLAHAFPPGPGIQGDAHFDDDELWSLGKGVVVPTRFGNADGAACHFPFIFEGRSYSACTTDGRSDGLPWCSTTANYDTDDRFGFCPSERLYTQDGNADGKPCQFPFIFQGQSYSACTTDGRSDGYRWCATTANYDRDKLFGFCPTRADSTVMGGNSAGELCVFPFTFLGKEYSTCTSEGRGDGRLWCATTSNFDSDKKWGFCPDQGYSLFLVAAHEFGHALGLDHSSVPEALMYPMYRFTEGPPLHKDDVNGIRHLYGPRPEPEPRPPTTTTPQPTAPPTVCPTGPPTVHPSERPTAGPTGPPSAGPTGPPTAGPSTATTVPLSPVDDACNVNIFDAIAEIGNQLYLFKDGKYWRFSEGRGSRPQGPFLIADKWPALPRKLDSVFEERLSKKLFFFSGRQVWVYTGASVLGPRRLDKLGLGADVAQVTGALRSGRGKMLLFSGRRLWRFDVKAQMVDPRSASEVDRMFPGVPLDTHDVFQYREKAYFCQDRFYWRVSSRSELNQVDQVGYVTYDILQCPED

For `CC(C)C[C@H](NC(=O)[C@H](C)N)C(=O)NCC(=O)N[C@@H](CC(C)C)C(=O)N1CCC[C@H]1C(=O)NCCCNc1cccc2c1C(=O)c1ccccc1C2=O.O=C(O)C(F)(F)F` [Example 6, 1-[3-(L-Alanyl-L-leucyl-glycyl-L-leucyl-L-prolylamino)propylamino]-anthraquinone trifluoroacetate], the “LEVEL OF INHIBITION of topo I-mediated relaxation pBR322 DNA” value (“LEVEL OF INHIBITION” below) [1] was “No inhibition of relaxation between 1-100 μM” and the melting point was 168 °C.

For `CC(C)C[C@H](NC(=O)CNC(=O)[C@@H](N)CC(C)C)C(=O)N1CCC[C@H]1C(=O)NCCCNc1cccc2c1C(=O)c1ccccc1C2=O.O=C(O)C(F)(F)F` [Example 5, 1-[3-(L-Leucyl-glycyl-L-leucyl-L-prolylamino)propylamino]-anthraquinone trifluoroacetate] (H-LGLP-{NH(CH2)3NH(1-anthraquinonyl)}), the “LEVEL OF INHIBITION” value [1] was “No inhibition of relaxation between 1-100 μM”, the melting point was 144 °C and the “% cells remaining” value ([2]; 1 μM) was 89%. For the same compound, the “% cells remaining” value ([2]; 10 μM) was 100%, the “% cells remaining” value ([2]; 100 μM) was 0% and the IC50 ([2]; Mus musculus) was 30 µM.

For `CC(C)C[C@H](NC(=O)CN)C(=O)N1CCC[C@H]1C(=O)NCCCNc1cccc2c1C(=O)c1ccccc1C2=O.O=C(O)C(F)(F)F` [Example 4, 1-[3-(Glycyl-L-leucyl-L-prolylamino)propylamino]anthraquinone trifluoroacetate], the “LEVEL OF INHIBITION” value [1] was “Partial inhibition of relaxation at 50 μM”, the melting point was 144 to 148 °C and the “% cells remaining” value ([2]; 1 μM) was 91%. For the same compound, the “% cells remaining” value ([2]; 10 μM) was 55%, the “% cells remaining” value ([2]; 100 μM) was 0% and the IC50 ([2]; Mus musculus) was 13 µM.

In the case of `CC(C)C[C@H](NC(=O)[C@H](C)NC(=O)[C@H](C)NC(=O)[C@@H](C)N)C(=O)NCC(=O)N[C@@H](CC(C)C)C(=O)N1CCC[C@@H]1C(=O)NCCCNc1cccc2c1C(=O)c1ccccc1C2=O.O=C(O)C(F)(F)F` [example (15)] (H-[dA]AALGL[dP]-{NH(CH2)3NH(1-anthraquinonyl)}), the “major products / metabolite” value [3] is reported as “the expected cleavage product example (11) [NU:UB 224]” and the rate of metabolism [3] is reported as 2.5 μmol/min/g tissue.

`CC(C)C[C@H](NC(=O)[C@H](C)NC(=O)[C@H](C)NC(=O)[C@@H](C)N)C(=O)NCC(=O)N[C@@H](CC(C)C)C(=O)N1CCC[C@H]1C(=O)NCCCNc1cccc2c1C(=O)c1ccccc1C2=O.O=C(O)C(F)(F)F` [example (8)] (H-[dA]AALGLP-{NH(CH2)3NH(1-anthraquinonyl)}) showed a t½ ([4]; mouse plasma at 37° C.) of over 13 h and a half-life ([4]; murine whole blood) of 1.46 h.

For `CC(C)C[C@H](N)C(=O)N1CCC[C@H]1C(=O)NCCCNc1cccc2c1C(=O)c1ccccc1C2=O.O=C(O)C(F)(F)F` [example (3)], the “inhibition of topo I-mediated relaxation, in words” value [1] was “Greatest inhibitory activity”.

With `CC(C)C[C@H](NC(=O)CN)C(=O)N1CCC[C@H]1C(=O)NCCCNc1cccc2c1C(=O)c1ccccc1C2=O.O=C(O)C(F)(F)F` [example (4)] the “inhibition of topo I-mediated relaxation, in words” value [1] was “weakly inhibited relaxation at 50 μM”.

In the case of `O=C(O)C(F)(F)F.O=C1c2ccccc2C(=O)c2c(NCCCNC(=O)[C@@H]3CCCN3)cccc21` [Example 2, 1-[3-(L-Propylamino)propylamino]anthraquinone trifluoroacetate], the IC50 ([5]; exposure time 96 hours, read-out: IC50) is reported as 4.3 µM, the “LEVEL OF INHIBITION” value [1] is reported as “Complete inhibition of relaxation at 25 μM” and the IC50 [2] is reported as 5 µM. For the same compound, the “% cells remaining” value ([2]; 1 μM) was 100%, the “% cells remaining” value ([2]; 10 μM) was 30% and the “% cells remaining” value ([2]; 100 μM) was 0%. The “QE50 (Ethidium Bromide displacement)” value [6] was 2 µM and the “QH50 (Hoechst Dye 33258 displacement)” value [7] was 0.6 µM.

For `NCCCNc1cccc2c1C(=O)c1ccccc1C2=O.O=C(O)C(F)(F)F` [Example 1b, 1-[(3-Aminopropyl)amino]anthraquinone trifluoroacetate], the “LEVEL OF INHIBITION” value [1] was “Complete inhibition of relaxation at 25 μM”, the “% cells remaining” value ([2]; 1 μM) was 90% and the “% cells remaining” value ([2]; 10 μM) was 100%. For the same compound, the “% cells remaining” value ([2]; 100 μM) was 5% and the IC50 ([2]; Mus musculus) was 33 µM.

For `CC(C)C[C@H](NC(=O)[C@H](C)NC(=O)[C@H](C)NC(=O)[C@@H](C)N)C(=O)NCC(=O)N[C@@H](CC(C)C)C(=O)N1CCC[C@H]1C(=O)NCCCNc1cccc2c1C(=O)c1ccccc1C2=O.O=C(O)C(F)(F)F` [Example 8, 1-[3-(D-Alanyl-L-alanyl-L-alanyl-L-leucyl-glycyl-L-leucyl-L-prolylamino)-propylamino]anthraquinone trifluoroacetate] (H-[dA]AALGLP-{NH(CH2)3NH(1-anthraquinonyl)}), the IC50 ([5]; Mus musculus, 96 h) was 36 µM, the “LEVEL OF INHIBITION” value [1] was “No inhibition of relaxation between 1-100 μM” and the melting point was 166 °C. For the same compound, the “% cells remaining” value ([2]; 1 μM) was 100%, the “% cells remaining” value ([2]; 10 μM) was 100% and the “% cells remaining” value ([2]; 100 μM) was 95%. The IC50 ([2]; Mus musculus) was over 100 µM, the “QE50 (Ethidium Bromide displacement)” value [6] was 17 µM and the “intercalation into DNA” value ([6]; refers to Table 3) was “not to intercalate into DNA”. For the same compound, the “cleavage product with MMP-9” value [8] was “cleavage to anthraquinonyl, spacer-linked tripeptide Example 4”, the “QH50 (Hoechst Dye 33258 displacement)” value [7] was 4 µM and the “groove binding to DNA” value ([7]; in comparison to example (2) NU:UB 31) was “weak groove binding agent”. For the same compound, the “major products / metabolite” value [3] was “the cleavage product Example 4 and the anthraquinone Example 1a” and the rate of metabolism [3] was 1.75 μmol/min/g tissue.

For `CC(C)C[C@H](NC(=O)[C@H](C)NC(=O)[C@H](C)N)C(=O)NCC(=O)N[C@@H](CC(C)C)C(=O)N1CCC[C@H]1C(=O)NCCCNc1cccc2c1C(=O)c1ccccc1C2=O.O=C(O)C(F)(F)F` [Example 7, 1-[3-(L-Alanyl-L-alanyl-L-leucyl-glycyl-L-leucyl-L-prolylamino)-propylamino]anthraquinone trifluoroacetate], the “LEVEL OF INHIBITION” value [1] was “No inhibition of relaxation between 1-100 μM” and the melting point was 132 °C.

With `CC(C)C[C@H](N)C(=O)N1CCC[C@H]1C(=O)NCCCNc1cccc2c1C(=O)c1ccccc1C2=O.O=C(O)C(F)(F)F` [Example 3, 1-[3-(L-Leucyl-L-prolylamino)propylamino]anthraquinone trifluoroacetate] the IC50 ([5]; Mus musculus, 96 h) was 2 µM, the “LEVEL OF INHIBITION” value [1] was “Complete inhibition of relaxation at 5 μM” and the melting point was 126 °C. The “% cells remaining” value ([2]; 1 μM) was 80%, the “% cells remaining” value ([2]; 10 μM) was 58% and the “% cells remaining” value ([2]; 100 μM) was 1%. For the same compound, the IC50 ([2]; Mus musculus) was 14 µM.
